Substitutions are numbered along the chain they refer to. “And” between values parts separate entries of the source, which are not always exact repeats. Equal entries are not always repeated. Square brackets hold non-standard residues; d marks the D form. Peptide text beside a SMILES is read from it. * marks the point of attachment. FITC = O=C1OC2(c3ccc(O)cc3Oc3cc(O)ccc32)c2ccc(NC(=S)*)cc21; Nle = CCCC[C@H](N)C(=O)O; For = O=C*
What was measured:
FPR1 haplotypes = experiment: FACScan binding of fNLFNYK–FITC, different FPR1 haplotypes; design: species or system human; conditions: different FPR1 haplotypes CH1–CH12
Description: (§1) Transfection of FPR1 haplotype cDNAs into CHO-Gα16 cells was carried out with the Gene Pulser Xcell Electroporation System from Bio-Rad Laboratories. […] Vectors containing the ORFs of the human FPR1 gene (8 μg in a volume of 8 μl) were added to the cells. Following a 280 V and 20 ms pulse (squarewave), the cells were immediately returned to 10 ml of culture medium and incubated for 24 h. Stable clones expressing FPR1 haplotypes were selected after 10 days of culture under the selection of 600 μg/ml G418 and identified by FACScan analysis after binding of 20 nM of the fluorescent ligand fNLFNYK–FITC to the CHO cell transfectants for 45 min at 4°C.
(§2) CHO cells were added to 3 mM KCl, 100 mM NaCl, 10 mM sodium phosphate, 1 mM Mg^2+ and 1 mM Ca^2+, pH 7.4, containing 5% fetal bovine serum and incubated at 4°C for 1 h with various concentrations of fNLFNYK–FITC. The mean fluorescence of the cells was determined after subtracting the readout of cells without fNLFNYK–FITC. The results were analysed by non-linear least squares analysis to determine Kd and Bmax values. […] Data from at least two different experiments in duplicate were analysed.

FPR1 haplotype CH5 = molecular target: T1, FPR1 haplotype CH5 (Homo sapiens, UniProt P21462, E346A/I11T/N192K/V101L); experiment: FACScan saturation binding of fNLFNYK–FITC, CH5 cells; conditions: CHO-Gα16 cells, 4°C, 1 h
T1 construct: Vectors including FPR1 ORFs were transfected into CHO-Gα16 cells; expressed in transfected cells
T1 sequence (P21462 1-350 I11T/V101L/N192K/E346A): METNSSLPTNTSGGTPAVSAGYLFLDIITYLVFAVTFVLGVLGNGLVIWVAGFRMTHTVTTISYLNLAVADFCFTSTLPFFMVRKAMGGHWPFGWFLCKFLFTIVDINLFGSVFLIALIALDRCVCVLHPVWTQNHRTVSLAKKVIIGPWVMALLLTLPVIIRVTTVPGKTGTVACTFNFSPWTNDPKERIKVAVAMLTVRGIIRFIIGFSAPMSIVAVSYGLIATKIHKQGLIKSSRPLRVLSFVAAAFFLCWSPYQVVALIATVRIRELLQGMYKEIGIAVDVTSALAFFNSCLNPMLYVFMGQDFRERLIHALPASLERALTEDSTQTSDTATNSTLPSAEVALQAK
Description: (§3) Stable clones expressing FPR1 haplotypes were selected after 10 days of culture under the selection of 600 μg/ml G418 and identified by FACScan analysis after binding of 20 nM of the fluorescent ligand fNLFNYK–FITC to the CHO cell transfectants for 45 min at 4°C.
as §2

FPR1 haplotype CH8 = molecular target: T2, FPR1 haplotype CH8 (Homo sapiens, UniProt P21462, I11T/V101L); experiment: FACScan saturation binding of fNLFNYK–FITC, CH8 cells; conditions: CHO-Gα16 cells, 4°C, 1 h
T2 construct: Vectors including FPR1 ORFs were transfected into CHO-Gα16 cells; expressed in transfected cells
T2 sequence (P21462 1-350 I11T/V101L): T1 sequence (P21462 1-350 I11T/V101L/N192K/E346A) with K192N, A346E
Description: as §3, §2

FPR1 haplotype CH7 = experiment: FACScan saturation binding of fNLFNYK–FITC, CH7 cells; design: species or system human; conditions: CHO-Gα16 cells, 4°C, 1 h
Description: as §3, §2

FPR1 haplotype CH4 = molecular target: T3, FPR1 haplotype CH4 (Homo sapiens, UniProt P21462, I11T); experiment: FACScan saturation binding of fNLFNYK–FITC, CH4 cells; conditions: CHO-Gα16 cells, 4°C, 1 h
T3 construct: Vectors including FPR1 ORFs were transfected into CHO-Gα16 cells; expressed in transfected cells
T3 sequence (P21462 1-350 I11T): T1 sequence (P21462 1-350 I11T/V101L/N192K/E346A) with L101V, K192N, A346E
Description: as §3, §2

FPR1 haplotype CH2 = molecular target: T4, FPR1 haplotype CH2 (Homo sapiens, UniProt P21462, E346A/I11T); experiment: FACScan saturation binding of fNLFNYK–FITC, CH2 cells; conditions: CHO-Gα16 cells, 4°C, 1 h
T4 construct: Vectors including FPR1 ORFs were transfected into CHO-Gα16 cells; expressed in transfected cells
T4 sequence (P21462 1-350 I11T/E346A): T1 sequence (P21462 1-350 I11T/V101L/N192K/E346A) with L101V, K192N
Description: as §3, §2

FPR1 haplotype CH1 = molecular target: T5, FPR1 haplotype CH1 (Homo sapiens, UniProt P21462, E346A/I11T/V101L); experiment: FACScan saturation binding of fNLFNYK–FITC, CH1 cells; conditions: CHO-Gα16 cells, 4°C, 1 h
T5 construct: Vectors including FPR1 ORFs were transfected into CHO-Gα16 cells; expressed in transfected cells
T5 sequence (P21462 1-350 I11T/V101L/E346A): T1 sequence (P21462 1-350 I11T/V101L/N192K/E346A) with K192N
Description: as §3, §2

FPR1 haplotype CH6 = molecular target: T6, FPR1 haplotype CH6 (Homo sapiens, UniProt P21462, E346A/I11T/R190W); experiment: FACScan saturation binding of fNLFNYK–FITC, CH6 cells; conditions: CHO-Gα16 cells, 4°C, 1 h
T6 construct: Vectors including FPR1 ORFs were transfected into CHO-Gα16 cells; expressed in transfected cells
T6 sequence (P21462 1-350 I11T/R190W/E346A): T1 sequence (P21462 1-350 I11T/V101L/N192K/E346A) with L101V, R190W, K192N
Description: as §3, §2

FPR1 haplotype CH11 = molecular target: T7, FPR1 haplotype CH11 (Homo sapiens, UniProt P21462); experiment: FACScan saturation binding of fNLFNYK–FITC, CH11 cells; conditions: CHO-Gα16 cells, 4°C, 1 h
T7 construct: expressed in transfected cells
T7 sequence (P21462 1-350): T1 sequence (P21462 1-350 I11T/V101L/N192K/E346A) with T11I, L101V, K192N, A346E
Description: as §1, §2

FPR1 haplotype CH9 = molecular target: T8, FPR1 haplotype CH9 (Homo sapiens, UniProt P21462, E346A/I11T/R190W/V101L); experiment: FACScan saturation binding of fNLFNYK–FITC, CH9 cells; conditions: CHO-Gα16 cells, 4°C, 1 h
T8 construct: expressed in transfected cells
T8 sequence (P21462 1-350 I11T/V101L/R190W/E346A): T1 sequence (P21462 1-350 I11T/V101L/N192K/E346A) with R190W, K192N
Description: as §3, §2

FPR1 haplotype CH3 = molecular target: T9, FPR1 haplotype CH3 (Homo sapiens, UniProt P21462, E346A/I11T/N192K); experiment: FACScan saturation binding of fNLFNYK–FITC, CH3 cells; conditions: CHO-Gα16 cells, 4°C, 1 h
T9 construct: Vectors including FPR1 ORFs were transfected into CHO-Gα16 cells; expressed in transfected cells
T9 sequence (P21462 1-350 I11T/N192K/E346A): T1 sequence (P21462 1-350 I11T/V101L/N192K/E346A) with L101V
Description: as §3, §2

FPR1 haplotype CH12 = molecular target: T10, FPR1 haplotype CH12 (Homo sapiens, UniProt P21462, V101L); experiment: FACScan saturation binding of fNLFNYK–FITC, CH12 cells; conditions: CHO-Gα16 cells, 4°C, 1 h
T10 construct: expressed in transfected cells
T10 sequence (P21462 1-350 V101L): T1 sequence (P21462 1-350 I11T/V101L/N192K/E346A) with T11I, K192N, A346E
Description: as §3, §2

FPR1 haplotype CH10 = experiment: FACScan saturation binding of fNLFNYK–FITC, CH10 cells; design: species or system human; conditions: CHO-Gα16 cells, 4°C, 1 h
Description: as §3, §2

CHO-Gα16-FPR1 cells = experiment: fMLF-induced ERK1/2 phosphorylation, CHO-Gα16-FPR1 cells; assay type: cell-based, human; conditions: fMLF 10 nM, 5 min, Western blot
Description: Activation of the p44/p42 MAPKs (ERK1/2) was determined as described previously [12] with modest modifications. Briefly, cells were cultured in 24-well plates at 5×10^5 cells/well for 24 h and serum starved for 2 h. They were pretreated with the indicated amounts of cyclosporins for 5 min before fMLF (10 nM) stimulation in HBSS/BSA. […] Samples were transferred to microcentrifuge tubes and sonicated twice for 5 s each to disperse DNA contents. After boiling, samples were analysed by SDS/PAGE and Western blotting using anti-ERK1/2 and anti-phospho-ERK1/2 antibodies at a 1:1000 dilution. Horseradish peroxidase-conjugated anti-rabbit antibody (1:3000 dilution) was used as the secondary antibody. The resulting immunocomplex was visualized using the SuperSignal West Pico chemiluminescence kit (Pierce Biotechnology) according to the manufacturer's instructions. The relative intensities of the bands from the PVDF membrane (Millipore) were quantified using the ChemDoc MP System (Bio-Rad) and Image-Pro Plus software (MediaCybernetics).

[1] = system: CHO-Gα16-FPR1 haplotype-expressing cells; experiment: Calcium mobilization by fMLF, four cell lines; assay type: cell-based, human; conditions: CH1, CH2, CH3 and CH5 cells; different concentrations of fMLF
Description: A calcium mobilization assay was performed as described previously with minor modifications [33]. Briefly, CHO-Gα16-FPR1 cells were plated on to 96-well plates at a density of 15000 cells in 100 μl of medium per well and incubated for 24 h. Cells were loaded with 5 μM Fluo-4/AM in HBSS (Hanks balanced saline solution) supplemented with 2.5 mM probenecid for 45 min and then washed twice with HBSS.

Compound: CCCC[C@H](NC=O)C(=O)N[C@@H](CC(C)C)C(=O)N[C@@H](Cc1ccccc1)C(=O)N[C@@H](CCCC)C(=O)N[C@@H](Cc1ccc(O)cc1)C(=O)N[C@@H](CCCCNC(=S)Nc1ccc2c(c1)C(=O)OC21c2ccc(O)cc2Oc2cc(O)ccc21)C(=O)O [fNLFNYK–FITC, N-formyl-Nle-Leu-Phe-Nle-Tyr-Lys–FITC] (For-[Nle]LF[Nle]YK(FITC)-OH; N-terminus and C-terminus assumed)
- receptor affinity of fNLFNYK–FITC (in words) (FPR1 haplotypes): varied moderately
- Bmax (FPR1 haplotype CH5): 42575±4902
- Bmax (FPR1 haplotype CH8): 36362±353
- Kd (FPR1 haplotype CH7; CH7 (T11/V101/R190/K192/E346), pH 7.4, FACScan, at least two experiments in duplicate): 1.7 ± 0.3 nM
- Bmax (FPR1 haplotype CH7; CH7, FACScan): 60688±10388
- Bmax (FPR1 haplotype CH4): 33860 and 33860±4977
- Bmax (FPR1 haplotype CH2): 47657±9098
- Bmax (FPR1 haplotype CH1): 48336±4553
- Bmax (FPR1 haplotype CH6): 34093±693
- Bmax (FPR1 haplotype CH11): 37713±5841
- Bmax (FPR1 haplotype CH9): 39009±6672
- Bmax (FPR1 haplotype CH3): 59135±4185
- Bmax (FPR1 haplotype CH12): 65059 and 65059±3570
- Kd (FPR1 haplotype CH10; CH10 (T11/L101/W190/N192/E346), pH 7.4, FACScan, at least two experiments in duplicate): 2.4 ± 0.3 nM
- Bmax (FPR1 haplotype CH10; CH10, FACScan): 41751±615

Compound: N-formyl-methionyl-leucyl-phenylalanine [fMLF]
- phosphorylation of ERK1/2 (in words) (CHO-Gα16-FPR1 cells): significant increase
- calcium mobilization (in words) [1]: elicited calcium mobilization dose-dependently

From article PMC3632010, “V101L of human formyl peptide receptor 1 (FPR1) increases receptor affinity and augments the antagonism mediated by cyclosporins” (Biochemical Journal, 2013)
